# Experimental data published in patent US8901276B2, “Peptide reagents and methods for detection of colon dysplasia” (The Regents of the University of Michigan, priority 2010, dated 2014).
# Where no end group is shown, it is not given here.
# Experiments:
# HT29 cells [1] = experiment: Measurement of binding affinity by flow cytometry; parameters: species or system human; conditions: FITC-labeled, 0 to 10 μM, 4° C., 1 hr
# Description: (§1) The binding affinity of multimer and monomer peptide was measured by varying the concentration of the 5-FITC-labeled peptides and trilysine incubated with the target cells (1×10^5) until saturation of fluorscence intensity was achieved. The FITC-labeled peptide was serially diluted in PBS at concentrations that varied from 0 to 10 μM and incubated with the target cells at 4° C. for 1 hr. The unbound peptide was rinsed off the cells by washing 3× with cold PBS/0.2% Tween-20 solution. The cells were fixed with 4% PFA, as mentioned above, washed 1× with PBS, and resuspended in 1 mL of PBS. Cells were transferred to a 5 mL tube and subjected to flow-cytometric analysis. The median fluorescence intensity from each concentration of peptides was used to calculate the affinity constant. The equilibrium dissociation constants (Kd=1/Ka) of the peptide-cell interaction were obtained by fitting the data to the non-linear equation I[X]=(I0+ImaxKa[X])/(I0+Ka[X]). I0 and Imax are the initial and maximum fluorescence intensities, corresponding to no peptide and at saturation, respectively, and [X] represents the concentration of the bound peptide. Origin 6.1 data analysis software (Origin Lab Corp, Northampton, Mass.) was used to perform a non-linear least square fit of the data.
# SW480 cell line = experiment: Measurement of binding affinity by flow cytometry; parameters: species or system human; conditions: FITC-labeled, 0 to 10 μM, 4° C., 1 hr
# Description: as §1
# colonic adenomas [2] = experiment: In vivo NIR imaging of Cy5.5-labeled AKP peptides; parameters: species or system CPC;Apc mice; conditions: for T/B ratio: 100 μM, 1.5 mL topical, 5 min; for detection of lesions by size: adenomas ˜0.5 to 4 mm
# Description: The binding activity of the synthetic peptides to colonic dysplasia was assessed in vivo in 3 cohorts of CPC;Apc mice: 1) AKP-multimer, n=14 mice with n=33 adenomas, 2) AKP-monomer, n=14 mice with n=27 adenomas, and 3) trilysine core, n=8 mice with n=17 adenomas as a control. For the imaging studies, anesthesia was induced and maintained in the animals with inhaled isoflurane mixed with oxygen via a nose cone at a dose of 4% and 2% at a flow rate of 0.5 liter/min, respectively. Prior to applying the peptides, the colon was prepped using a tap water lavage. The adenomas were viewed endoscopically, and videos were recorded using white light with a small animal endoscope (Karl Storz Veterinary Endoscopy, Goleta, Calif.). The colon was rinsed with water until all mucous and other debris was removed. Adenomas from approximately 0.5-4 mm in diameter that were not covered in debris, including stool and mucous, were included in the study.
# The Cy5.5-labeled peptides were delivered at a concentration of 100 μM in PBS containing 2.5% DMSO (dimethyl sulfoxide) through the instrument channel of the endoscope. During peptide administration, 1.5 mL of peptide was delivered to the distal colon in each mouse. The peptide was allowed to incubate for 5 min after which the colon was cleansed 3× with a tap water to remove the unbound peptide. Prior to imaging, the colon was inspected for residual peptide solution, and when clean, the colon was insufflated with air and imaged with the wide field endoscope which provides excitation at 671 nm. Fluorescence and reflectance videos were collected using Axiovision 4.8.1 software. Fluorescence videos were collected at 100 ms/frame (10 Hz), and transferred to the computer for storage by a firewire connection. A filter wheel was incorporated into the handle of the housing to quickly switch between collection of reflectance and fluorescence images. White light, fluorescence and reflectance images were collected from 1) n=14 mice having n=33 adenomas with AKP-multimer, 2) n=14 mice having n=27 adenomas with AKP-monomer, and 3) n=8 mice having n=17 adenomas with the trilysine (control). The CPC;Apc mice imaged ranged in age from 3 to 6 months. Fluorescence images were exported as videos in zvi format (16 bit digital resolution) using LabView software. Sequentially-collected white light and fluorescence images for each adenoma were analyzed. Separate regions of interest (ROI) were defined around the adenoma and adjacent normal-appearing mucosa on the white light image, and the ROI's were overlayed onto the fluorescence images. The target to-background (T/B) ratio was determined by ratioing the mean intensities from these 2 ROI's.
# CCD-841Con cells [3] = experiment: Fluorescence microscopy of FITC-labeled AKP peptides; format: cell-based, human; conditions: 10 μM, 4° C., 1 hr
# Description: (§2) Preferential binding of the FITC-labeled peptides to the target and non-target cells as mentioned above was further validated via fluorescence microscopy. Cells (˜7.5×10^3) were seeded on cover slips to ˜80% confluence. The cells were then incubated with 10 μM of 5-FITC-labeled peptides and trilysine at 4° C. for 1 hr followed by staining with 1 μg/mL Hoechst dye (Sigma Aldrich, St. Louis, Mo.). The cells were washed 3× with PBS and fixed with 4% paraformaldehyde at RT for 10 min. After fixation, the cells were washed again with PBS (1×) and mounted with ProLong Gold reagent (Invitrogen, Carlsbad, Calif.) and fluorescence images were collected with confocal microscopy (Leica TCS SP5 Microsystems, Bannockburn, Ill.). The specific peptide binding activity of the FITC-labeled AKP-multimer and AKP-monomer peptides was compared.
# HT29 cells [4] = experiment: as above; format: cell-based, human
# Description: as §2
# SW480 cells [5] = experiment: as above; format: cell-based, human; conditions: 10 μM, 4° C., 1 hr
# Description: as §2
# HT29 cells [6] = experiment: Kinetic measurements by flow cytometry; format: binding, human; conditions: for rate constant K: 10 μM, 4° C., 0-60 min, first order fit
# Description: The binding kinetics for AKP-monomer and AKP-multimer peptide was further evaluated on the target cells in the presence of 10 μM peptide concentration. The target cells (5×10^5) were detached and blocked as mentioned earlier and incubated with both monomer and multimer peptides at 4° C. over time from 0-60 min. After completing the incubation for each time course, the samples were prepared for flow cytometry, as mentioned above. The kinetics of peptide binding with the cell surface was determined by measuring the shift in the intensity of FITC-channel as a function of time. The resulting data were converted to median values as a function of time, and the rate constant was calculated using first order rate kinetics Y=a−b*exp^(−kx); where a=maximum value, b=difference in intensity (I−I0), and K=rate constant. Curve fits were performed using Origin 6.1 data analysis software.
# CCD-841Con cells [7] = experiment: Flow cytometry of FITC-labeled AKP peptides; format: cell-based, human; conditions: 10 μM, 60 min, 4° C.
# Description: (§3) Peptides labeled with 5-FITC were used for the validation assays of cell binding. Preferential binding of the multimer peptide, monomer peptide, and trilysine to different human colorectal cancer (SW480, and HT29) and control cells (CCD841-Con) was validated on flow cytometry. A total of 5×10^5 cells were used with each probe. The confluent cells were detached using enzyme free cell dissociation buffer (Invitrogen, Carlsbad, Calif.) or trypsin with 0.25% EDTA (Mediatech Inc, Manassa, Va.) and immersed in blocking buffer, PBS with 1% bovine serum albumin (BSA), for 30 min at 4° C. with continuous agitation. After blocking, cells were washed with 1×PBS and spun down for 5 min at 1000 rpm. Then cells were incubated with the 5-FITC labeled peptides and trilysine (10 μM) for 60 min at 4° C. with continuous agitation. The cells were then washed 3× with cold PBST followed by immediate fixation for 10 min with 4% paraformaldehyde. The cells were washed again (1×) with PBS and resuspended in 1 mL of PBS. Flow cytometry was performed using FACSDiVa (BD® LSRII, BD Biosciences, San Jose, Calif.) and analyzed using Flowjo analysis program (Tree Star Inc, Ashland, Oreg.). The gain was kept constant for all experiments.
# HT29 cells [8] = experiment: Flow cytometry of FITC-labeled AKP peptides; format: cell-based, human
# Description: as §3
# SW480 cells [9] = experiment: Flow cytometry of FITC-labeled AKP peptides; format: cell-based, human; conditions: 10 μM, 60 min, 4° C.
# Description: as §3
# colonic adenomas [10] = experiment: In vivo small animal fluorescence endoscopy with FITC-labeled peptides; parameters: species or system CPC;Apc mice; conditions: topical, 5 min incubation, mean±SD
# Description: Prior to peptide administration, the colon was prepped using a tap water lavage. Using a small animal endoscope (Karl Storz Veterinary Endoscopy, Goleta, Calif.) with an instrument channel for performing biopsy, polyps suitable for peptide administration were located and the colon was rinsed with water until all mucous was removed. FITC-labeled Peptide 1 and Control peptide 1 were delivered in 1×PBS through the instrument channel. The peptides were allowed to incubate for 5 minutes after which the colon was cleansed 3× with a tap water to remove the unbound peptide. […] Fluorescence excitation produced with a 450-475 nm passband filter that can be manually switched to the optical path of a 175 W Nova Xenon light source was delivered to the endoscope via a 3 mm diameter fluid light cable (250 cm length). Fluorescence images were collected with a 510 nm long-pass barrier filter to block the excitation light and detected with a 3-chip color camera with an integrated parfocal zoom lens. Real time video was recorded via firewire connected to a personal computer. Polyps in CPC;Apc mice developing distal colonic adenomas (Peptide 1, n=6 mice, n=18 polyps; Control peptide 1, n=4 mice, n=7 polyps) in addition to Cre recombinase negative littermate controls (Peptide 1, n=2 mice) and Hyperplastic Kras mice (Peptide 1, n=3 mice) were imaged using both white light and fluorescence endoscopy. […]
# [11] = tested on: dysplastic crypts of excised polyps; experiment: Confocal fluorescence imaging of ex vivo binding; parameters: species or system CPC;Apc mice; conditions: ex vivo incubated polyps
# Description: Preferential binding of the Peptide 1 compared to the Control peptide 1 on the adenomatous polyps was again confirmed with confocal microscopy. After peptide incubation, excised polyps were incubated ex vivo in 1 μg/mL Hoechst dye for 5 min to stain living nuclei, rinsed 3× with 1×PBS and imaged on an Olympus Confocal Microscope (Olympus, Tokyo, Japan).
# [12] = tested on: isolated colonic epithelial cells from adenomas; experiment: Flow cytometry of FITC-conjugated phage clones; format: cell-based, CPC;Apc mice
# Description: Specific binding of the candidate peptides to primary dysplastic colonic epithelial cells were validated on flow cytometry ex vivo and with small animal endoscopy in vivo using FITC-labeled peptides using a non-scanning white light endoscope.
# Phages that bound to colonic adenomas approximately 10 times greater in number than to normal appearing colonic mucosa were chosen. As a result, 42 individual phage clones were sequenced from the third round of biopanning, and were individually amplified and conjugated to 5′-FITC. Binding to isolated colonic epithelial cells from adenomas for each phage clone was analyzed using flow cytometry. A common 7-mer phage that expresses the sequence HAIYPRH (SEQ ID NO: 29) is a known contaminant, and was run (labeled # in Supplementary FIG. 1B) to ensure the validity of the assay. […] Six phage clones with a T/B ratio (target to wild-type phage)>1.9 were identified as ALTPTPP (SEQ ID NO: 30), NLVNLLP (SEQ ID NO: 31), ANYPREP (SEQ ID NO: 32), ATTVPAS (SEQ ID NO: 33), LTTHYKL (SEQ ID NO: 26), and AKPGYLS (SEQ ID NO: 25). The KCCFPAQ (SEQ ID NO: 2) peptide had been previously found to bind to human HT29 cells.
# [13] = cell line not specified (SW480, HT29, CCD-841Con tested)
substance,measurement,setting,value
"AKP-multimer: tetrameric version of AKPGYLS anchored on a trilysine core; Cy5.5 label in vivo, FITC label in vitro (also: tetramer on trilysine core, Cy5.5 or FITC label)",Kd,HT29 cells [1],6.4 nM
same,Kd,SW480 cell line,101 nM
same,NIR fluorescence signal from adenomas,colonic adenomas [2]; Cy5.5-labeled,significantly amplified
same,average fluorescence intensity from colonic adenomas relative to AKP-monomer and trilysine control,colonic adenomas [2]; Cy5.5-labeled,~1.8 fold
same,T/B ratio,colonic adenomas [2]; Cy5.5-labeled,3.84±0.26
same,detection of lesions by size,colonic adenomas [2],detected all lesions regardless of size
same,binding to plasma membrane,CCD-841Con cells [3],not to CCD-841Con cells
same,binding to plasma membrane,"HT29 cells [4]; HT29, FITC-labeled, 10 μM, 4° C., 1 hr",bound specifically to the plasma membrane
same,binding to plasma membrane,SW480 cells [5],bound specifically to the plasma membrane
same,binding speed relative to AKP-monomer,HT29 cells [6],~2 fold
same,rate constant K,HT29 cells [6],0.1136 min⁻¹
same,rate constant K,HT29 cells [6]; listed as multimer,0.1136 min⁻¹
same,counts relative to unstained cells,CCD-841Con cells [7],2.2 times
same,counts relative to unstained cells,"HT29 cells [8]; HT29, FITC-labeled, 10 μM, 60 min, 4° C.",26.1 times
same,counts relative to unstained cells,SW480 cells [9],20.2 times
"AKPGYLSGGGSK-NH2 [AKP-monomer, Cy5.5 label in vivo, FITC label in vitro]",Kd,HT29 cells [1],310 nM
same,Kd,SW480 cell line,1210 nM
same,NIR fluorescence signal from adenomas,colonic adenomas [2]; Cy5.5-labeled,faint fluorescence intensity
same,T/B ratio,colonic adenomas [2]; Cy5.5-labeled,2.21±0.13
same,detection of lesions by size,colonic adenomas [2],did not visualize lesions smaller than ˜1 mm
same,cell staining on microscopy,HT29 cells [4]; [13],lower fluorescence intensity at the cell surface
same,rate constant K,HT29 cells [6],0.0663 min⁻¹
same,extent of cell binding on flow cytometry,HT29 cells [8]; [13],bound to a lower extent than the AKP-multimer
"GGGAGGGA [FITC-Control peptide 1, control peptide containing Gly and Ala, FITC-labeled]","T/B (polyp/normal colon, target to background ratio)",colonic adenomas [10],1.14±0.15
same,"binding to dysplastic crypts, confocal microscopy",[11],Minimal to no binding
HAIYPRH,T/B ratio (target to wild-type phage),[12],1.10±0.08
